US20190290694A1, “STABLY ENGINEREED PROTEASOME INHIBITOR RESISTANT IMMUNE CELLS FOR IMMUNOTHERAPY” (CELLECTIS, priority 2016, published 2019)

Tests used:
[1] = tested on: CART cells that express PSMB5; assay: Bortezomib dose response, viability of CART cells coexpressing PSMB5; format: cell-based, human; conditions: CART cells that express PSMB5 as compared to WT CART cells and NT cells, 48h, FIG. 4
Experimental: (§1) To investigate whether overexpressing POMP, PSMB5 or mutated PSMB5 on CART cells confers resistance to bortezomib treatment, T-cells frozen PBMCs were thawed and activated using Dynabeads human T activator CD3/CD28. 3 days after their activation 1 million T-cells were transduced or not using the CD123 CAR and one of the ORF at a MOI of 5 for both lentiviral particles. Cells were then immediately diluted in X-Vivo-15 media supplemented by 20 ng/ml IL-2 and 5% human serum AB and diluted at 1×10^6 cells/ml and kept in culture at 37° C. in the presence of 5% CO2. 7 days later, T cells, CART cells and MOLM13 cells were cultured for 48h in the presence of increasing doses of bortezomib ranging from 0 to 100 μM. At the end of the culture cell viability was assessed by flow cytometry using a live dead cell marker.

[2] = tested on: primary CAR T-cell (CAR anti-CD123); assay: Bortezomib dose response, viability of primary CAR T-cells (CAR anti-CD123) by flow cytometry; format: cell-based, human
Source text: (§2) Peripheral blood mononuclear cells (PBMC) were obtained from healthy volunteer donors as described by Schwartz J. et al. (Guidelines on the use of therapeutic apheresis in clinical practice-evidence-based approach from the Writing Committee of the American Society for Apheresis: the sixth special issue (2013) J Clin Apher. 28(3):145-284).
(§3) To investigate whether bortezomib treatment modify the survival of primary cells, frozen PBMCs were thawed and activated using Dynabeads human T activator CD3/CD28. 3 days after their activation, 1 million cells were transduced using a CD123 CAR (specific for CD123) at a MOI of 5. Cells were then immediately diluted in X-Vivo-15 media supplemented by 20 ng/ml IL-2 and 5% human serum AB and diluted at 1×10^6 cells/ml and kept in culture at 37° C. in the presence of 5% CO2. 7 days later, T cells, CART cells and MOLM13 cells were cultured for 48h in the presence of bortezomib increasing doses of bortezomib ranging from 0 nM to 100 pM. At the end of the culture cell viability was assessed by flow cytometry using a live dead cell marker.
To investigate whether overexpressing POMP, PSMB5 or mutated PSMB5 on CART cells confers resistance to bortezomib treatment, T-cells frozen PBMCs were thawed and activated using Dynabeads human T activator CD3/CD28. […] At the end of the culture cell viability was assessed by flow cytometry using a live dead cell marker.

MOLM13 cell line = assay: Bortezomib dose response, viability of MOLM13 cells by flow cytometry; format: cell-based; conditions: Homo sapiens, MOLM-13, cultured for 48h with bortezomib, FIG. 1C, read-out: EC50 of Bortezomib (cell depletion / viability)
Experimental: as §3, with “7 days later, T cells, CART cells and MOLM13 cells were cultured for 48h in the presence of bortezomib increasing doses of bortezomib ranging from 0 nM to 100 pM.” left out

[3] = tested on: CART cells that express mutated PSMB5; assay: Bortezomib dose response, viability of CART cells coexpressing mutated PSMB5; format: cell-based, human; conditions: CART cells that express mutated PSMB5 as compared to WT CART cells and NT cells, 48h, FIG. 4
Experimental: as §1

primary T cell = assay: Bortezomib dose response, viability of primary T cells by flow cytometry (live dead cell marker); format: cell-based; conditions: Homo sapiens, cultured for 48h with bortezomib, FIG. 1A, read-out: EC50 of Bortezomib (cell depletion / viability)
Source text: as §2
as §3, with “7 days later, T cells, CART cells and MOLM13 cells were cultured for 48h in the presence of bortezomib increasing doses of bortezomib ranging from 0 nM to 100 pM.” left out

[4] = tested on: GECKO-transduced primary T-cells; assay: Puromycine resistance test of mock- and GECKO-transduced primary T-cells (viability by flow cytometry); format: cell-based, human; set-up: dose or concentration left out as unconfirmed; conditions: GECKO-transduced versus mock T-cells, 3 days, simultaneous activation/transduction, FIG. 5
Experimental: Peripheral blood mononuclear cells (PBMC) were obtained from healthy volunteer donors and T-lymphocytes were purified using the EasySep human T-cell enrichment kit (Stemcell Technologies). By contrast with the GECKO protocol described by Shalem et al., primary T-cells were activated and immediately transduced with the viral particles. The T-cells were first mixed with dynabeads (25 uL/10^6 T-cells) in Xvivo-15 media and then plated on 12 well plates coated by 30 ug/mL retronectin per well (iml of retronectin per well incubated 1 hour at 37° C. followed by a washing steps using 1 ml of PBS 2% FBS) in a total volume of 400 μL. The mixture was supplemented by either 200 μL of GECKO lentiviral particles or 200 μL of Xvivo-15 media and incubated 2H at 37° C. and 5% CO2. The mixture was then supplemented by 600 μL of Xvivo-15 media, 10% AB serum and 40 ng/mL IL2 and incubated overnight at 37° C. with 5% CO2. Cells were then washed with 1.5 ml of Xvivo-15 media and resuspended in Xvivo-15 media, 5% AB serum, 20 ng/mL IL-2 in 6 wells plate at 10^6 cells/mL.
3 days post transduction, cells were recovered and used to perform a puromycine resistance test. […] FIG. 2 illustrates the puromycine sensitivity pattern of mock- and GECKO-transduced primary T-cells determined by flow cytometry. […] Cells are then recovered, labeled using EFluor780 dye and analyzed by flow cytometry to determine their viability. […]

Compound | EC50 of bortezomib, change [1] | EC50 of bortezomib, change ([2]; CART cells as compared to non-transduced cells, 48h, FIG. 4) | EC50 ([2]; Homo sapiens, T-cell, primary CART cells (CD123 CAR), cultured for 48h with bortezomib, FIG. 1B, read-out: EC50 of Bortezomib (cell depletion / viability)) [nM] | EC50 (MOLM13 cell line) [nM] | EC50 of bortezomib, change [3] | EC50 (primary T cell) [nM] | puromycine sensitivity (viability frequency) [4]
CC(C)C[C@H](NC(=O)[C@H](Cc1ccccc1)NC(=O)c1cnccn1)B(O)O [bortezomib] | increased | increased | ~10 | ~10 | increased | ~10 | –
COc1ccc(C[C@H](N)C(=O)N[C@H]2[C@@H](O)[C@H](n3cnc4c(N(C)C)ncnc43)O[C@@H]2CO)cc1 [puromycine] | – | – | – | – | – | – | more resistance
